Assay results from EP4772520A1, “NOVEL PRODRUG-TYPE ANTICANCER AGENT TARGETING CANCER-SPECIFIC ENZYME ACTIVITY” (priority 2023, dated 2025).

What was measured:
[1] = test system: lung adenocarcinoma cell A549; assay: Cytotoxicity test by MTT assay method (A549); type: cell-based; settings: for IC50: Homo sapiens, A549, 72 h, read-out: IC50 value
[2] = Single dose toxicity test 2 (intravenous); type: in vivo, Jcl: ICR mice (female); settings: for Survival rate (%) (after 14 days) / Survival rate (%) (just after administration): n=10; for symptoms immediately after administration: SN38-βGal 300 mg/kg, SN38-βGlcNAc 500 mg/kg intravenous, improved in several hours; for LD50 at 336 h: mouse, in vivo, iv, single intravenous administration, estimated
Experimental: Single dose toxicity was evaluated by intravenously administering the novel prodrug-type anticancer agents SN38-βGal and SN38-βGlcNAc to Jcl: ICR mice (female). […] 500 mg/kg of SN38-βGlcNAc was intravenously administered.

[3] = for histological findings (organ damage): summary; for biochemical test findings / blood cell test findings: vs Vehicle; for body weight loss: 40 mg/kg i.v. three times a week for three weeks, at maximum by the final day; for RETICULOCYTE COUNT: blood cell classification, Average
Experimental: For the Vehicle group, a corresponding amount of DMSO was administered.
After blood was collected on day 22 and then euthanized, the liver, kidney, and spleen were taken out and their weights were compared.

[4] = target: T1, human AChE (Homo sapiens, UniProt P22303); assay: Evaluation of inhibitory activity on acetylcholinesterase (AChE); type: biochemical; settings: for AChE inhibitory activity: in the presence of 10 µM of each drug; for IC50: read-out: IC50 value for AChE inhibition, 60 min value
T1 construct: purchased AnaSpec, Inc
Experimental: The procedure of the specific inhibition test is shown below. • (1) A test drug at each concentration was added to a 96 well plate, and acetylcholine, an AChE substrate, and an AChE purified enzyme were added according to a protocol, using SensoLyte (registered trademark) 520 Acetylcholine esterase Activity Assay Kit Fluorometric (AnaSpec, Inc.). Neostigmine bromide known as an AChE inhibitor was used as […]. • (2) The fluorescence value at 520 nm was measured, and the IC50 value was calculated.

[5] = test system: luciferase-expressing A549 cells; assay: Therapeutic experiment 1 in A549 lung cancer orthotopic transplantation model; type: in vivo, mice; settings: 40 mg/kg i.v., 3 times a week; for tumor suppression effect (luciferin/luciferase chemiluminescence): vs Vehicle
Experimental: The administration form was intravenous administration (i.v.). The dose was 40 mg/kg, and administration was performed 3 times a week for 4 times. The tumor burden was determined by evaluating the luciferin/luciferase chemiluminescence value. The endpoint was the time point of significant body weight loss (20% loss).
A specific procedure of the therapeutic experiment is shown below. • (1) Model mice were created by the following operation using BALB/cAJcl-nu/nu (7 weeks old). The skin of the chest was incised, and the skin was subcutaneously detached, then luciferase-expressing A549 cells 2 × 10^7 cells/mL (50 µL, 5% Matrigel) was injected from the intercostal pleura to the left lung. After injection, the skin was sutured. • (2) After 17 days, the formation of cancer was confirmed by luciferin/luciferase chemiluminescence, and the intravenous administration of the drug was started. The drug was prepared by dissolving a 200 mM of DMSO stock in PBS, and administered in a total amount of 100 µL. 3 mg (200 µL) of luciferin was administered by intraperitoneal administration, and anesthetized with isoflurane. Thereafter, the chemiluminescent value at 20 minutes after administration was measured by an in vivo imaging device. • (3) On the day of evaluation, the tumor burden was evaluated by the body weight and the luciferin/luciferase chemiluminescence.

[6] = test system: SHP77-luc; assay: Tumor proliferation suppression test in small cell lung cancer orthotopic model; type: in vivo, mice; settings: 40 mg/kg i.v. twice a week for 4 weeks; for tumor growth (luciferin/luciferase luminescence): n = 6, vs Vehicle
Experimental: The tumor proliferation suppression effect of the developed prodrugs SN38-βGal and SN38-βGlcNAc in a small cell lung cancer model was evaluated. The model was created by orthotopically transplanting SHP77-luc in which luciferase was expressed in a small cell lung cancer cell line SHP77 relative to BALB/cAJcl-nu/nu into the lung. The Vehicle (DMSO administration) group, the SN38-βGal administration group, and the SN38-βGlcNAc administration group were n = 6, respectively. The administration form was intravenous administration (i.v.), and the dose was 40 mg/kg, and administration was performed twice a week for 4 weeks. The tumor burden was evaluated by the luciferin/luciferase luminescence value.
A specific procedure of the therapeutic experiment is shown below. • (1) Model mice were created by the following procedure using 20 BALB/cAJcl-nu/nu (7 weeks old/female) mice. 150 to 200 µL of an anesthetic (a mixture of 3 kinds of Domitor + Betorphal + Mitazolam) was intraperitoneally administered to perform anesthesia. The skin of the left chest was incised, the subcutaneous tissue was detached, and then SHP77 luc cell suspension 2 × 10^7 cells/mL (50 µL, 5% Matrigel) was injected from the intercostal pleura to the left lung. The skin was sutured at 3 sites, and 150 to 200 µL of an anti-sedan (atipamezol) solution was intraperitoneally administered to check awakening of the mice. • (2) After 3 weeks, the formation of cancer was confirmed by luciferin/luciferase luminescence, and the administration of the drug was started. The drug was prepared by dissolving 200 mM of DMSO stock in PBS, and was administered from the tail vein in a total amount of 100 µL.3 mg (200 µL) of luciferin was intraperitoneally administered, and anesthetized with isoflurane. Thereafter, the luminescent value at 15 minutes after administration was measured by an in vivo imaging device. • (3) On the day of evaluation, the tumor burden was evaluated by the body weight and the luciferin/luciferase luminescence.

T1 sequence (P22303 32-614): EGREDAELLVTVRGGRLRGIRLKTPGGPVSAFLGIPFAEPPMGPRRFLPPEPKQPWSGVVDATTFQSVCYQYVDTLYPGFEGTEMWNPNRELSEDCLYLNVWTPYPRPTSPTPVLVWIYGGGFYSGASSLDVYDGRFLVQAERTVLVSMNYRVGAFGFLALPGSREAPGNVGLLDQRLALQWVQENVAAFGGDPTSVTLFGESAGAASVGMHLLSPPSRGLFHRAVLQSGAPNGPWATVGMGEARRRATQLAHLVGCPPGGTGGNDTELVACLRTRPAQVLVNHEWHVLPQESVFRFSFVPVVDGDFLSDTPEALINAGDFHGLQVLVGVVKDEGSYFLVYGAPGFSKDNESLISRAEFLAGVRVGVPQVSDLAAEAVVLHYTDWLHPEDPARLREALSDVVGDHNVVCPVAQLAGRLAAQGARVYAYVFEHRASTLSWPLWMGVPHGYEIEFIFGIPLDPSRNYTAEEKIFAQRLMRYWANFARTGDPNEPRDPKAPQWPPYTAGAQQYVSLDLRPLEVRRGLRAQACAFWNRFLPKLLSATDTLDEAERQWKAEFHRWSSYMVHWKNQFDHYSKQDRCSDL

In the case of CCc1c2c(nc3ccc(O[C@@H]4O[C@H](CO)[C@H](O)[C@H](O)[C@H]4O)cc13)-c1cc3c(c(=O)n1C2)COC(=O)[C@]3(O)CC [SN38-βGal], the IC50 [1] is reported as 3.38 µM, the “Survival rate (%) (after 14 days)” value ([2]; 200 mg/kg intravenous) is reported as 100% and the “Survival rate (%) (just after administration)” value ([2]; 200 mg/kg intravenous) is reported as 100%. For the same molecule, the “symptoms immediately after administration” value [2] was “reduced locomotor activity and prone states were found in more than half of the mice in both groups”, the LD50 at 336 h [2] was ≥ 300 mg/kg and the “Histological findings in kidney” value ([3]; 40 mg/kg i.v. repeated) was “organ damage to the kidney was not observed”. For the same molecule, the “Histological findings in large intestine” value ([3]; 40 mg/kg i.v. repeated) was “the side effects were very mild as compared with CPT-11”, the “Histological findings in liver” value ([3]; 40 mg/kg i.v. repeated) was “organ damage to the liver was not observed” and the “Histological findings in small intestine” value ([3]; 40 mg/kg i.v. repeated) was “the side effects were very mild as compared with CPT-11”. The “Histological findings in spleen” value ([3]; 40 mg/kg i.v. repeated) was “organ damage to the spleen was very mild”, the “histological findings (organ damage)” value ([3]; 40 mg/kg i.v. repeated) was “no organ damage was observed in the small intestine, large intestine, kidney, liver, and spleen” and the biochemical test findings ([3]; 40 mg/kg i.v. repeated) was “a slight decrease in AST and ALT values was observed”. For the same molecule, the “blood cell test findings” value ([3]; 40 mg/kg i.v. repeated) was “a slight increase in eosinophils and a decrease in basophils were estimated”, the body weight loss [3] was “significant body weight loss was not observed” and the “RETICULOCYTE COUNT” value ([3]; 40 mg/kg i.v. repeated) was 220300 µL⁻¹. For the same molecule, the AChE inhibitory activity [4] was “did not inhibit AChE activity in this concentration range”, the IC50 [4] was 1560 µM and the body weight [5] was “the slight body weight loss was found, but it was not remarkable as in CPT-11”. The “tumor suppression effect (luciferin/luciferase chemiluminescence)” value [5] was “tended to suppress tumor growth as in the CPT-11 administration group”, the body weight [6] was “no body weight loss was found during the treatment period” and the “tumor growth (luciferin/luciferase luminescence)” value [6] was “significant suppression of tumor growth was confirmed”.

In the case of CCc1c2c(nc3ccc(O[C@@H]4O[C@H](CO)[C@@H](O)[C@H](O)[C@H]4NC(C)=O)cc13)-c1cc3c(c(=O)n1C2)COC(=O)[C@]3(O)CC [SN38-βGlcNAc], the “cytotoxicity in the presence of inhibitor” value ([1]; A549, inhibitor PUGNAc of β-hexosaminidase) is reported as “cytotoxicity was significantly reduced”, the IC50 [1] is reported as 1.35 µM and the “Survival rate (%) (after 14 days)” value ([2]; 200 mg/kg intravenous) is reported as 100%. For the same molecule, the “Survival rate (%) (just after administration)” value ([2]; 200 mg/kg intravenous) was 100%, the “Survival rate (%) (after 14 days)” value ([2]; 300 mg/kg intravenous) was 100% and the “Survival rate (%) (just after administration)” value ([2]; 300 mg/kg intravenous) was 100%. The “Survival rate (%) (after 14 days)” value ([2]; 500 mg/kg intravenous) was 100%, the “Survival rate (%) (just after administration)” value ([2]; 500 mg/kg intravenous) was 100% and the “symptoms immediately after administration” value [2] was “reduced locomotor activity and prone states were found in more than half of the mice in both groups”. For the same molecule, the LD50 at 336 h [2] was ≥ 500 mg/kg, the “Histological findings in kidney” value ([3]; 40 mg/kg i.v. repeated) was “organ damage to the kidney was not observed” and the “Histological findings in large intestine” value ([3]; 40 mg/kg i.v. repeated) was “the side effects were very mild as compared with CPT-11”. The “Histological findings in liver” value ([3]; 40 mg/kg i.v. repeated) was “organ damage to the liver was not observed”, the “Histological findings in small intestine” value ([3]; 40 mg/kg i.v. repeated) was “the side effects were very mild as compared with CPT-11” and the “Histological findings in spleen” value ([3]; 40 mg/kg i.v. repeated) was “organ damage to the spleen was very mild”. The “organ weight (liver, kidney, spleen)” value ([3]; 40 mg/kg i.v. repeated, day 22, vs Vehicle) was “An increase in spleen weight was observed”, the “histological findings (organ damage)” value ([3]; 40 mg/kg i.v. repeated) was “no organ damage was observed in the small intestine, large intestine, kidney, liver, and spleen” and the biochemical test findings ([3]; 40 mg/kg i.v. repeated) was “slight increases in urea nitrogen and creatinine were observed”. The “blood cell test findings” value ([3]; 40 mg/kg i.v. repeated) was “an increase in eosinophils and a decrease in basophils were estimated”, the body weight loss [3] was “significant body weight loss was not observed” and the “RETICULOCYTE COUNT” value ([3]; 40 mg/kg i.v. repeated) was 242300 µL⁻¹. The AChE inhibitory activity [4] was “did not inhibit AChE activity in this concentration range”, the IC50 [4] was 1440 µM and the body weight [5] was “the slight body weight loss was found, but it was not remarkable as in CPT-11”. The “tumor suppression effect (luciferin/luciferase chemiluminescence)” value [5] was “tended to suppress tumor growth as in the CPT-11 administration group”, the body weight [6] was “no body weight loss was found during the treatment period” and the “tumor growth (luciferin/luciferase luminescence)” value [6] was “significant suppression of tumor growth was confirmed”.
